Consider one compound from PMC4821601, “The Interactions of P-Glycoprotein with Antimalarial Drugs, Including Substrate Affinity, Inhibition and Regulation” (PLoS ONE, 2016).

Read-outs that look alike come from different tables or passages of the source.

The target of one data set is T1, P-glycoprotein (P-gp) (Homo sapiens, UniProt P08183).
T1 construct: In-vitro Caco-2 cell monolayers were used here as a model for potential drug absorption related problems and P-gp mediated transport of drugs; endogenous in cells; host or cells: Caco-2 (human colon carcinoma, ATCC)
T1 sequence (P08183 whole entry): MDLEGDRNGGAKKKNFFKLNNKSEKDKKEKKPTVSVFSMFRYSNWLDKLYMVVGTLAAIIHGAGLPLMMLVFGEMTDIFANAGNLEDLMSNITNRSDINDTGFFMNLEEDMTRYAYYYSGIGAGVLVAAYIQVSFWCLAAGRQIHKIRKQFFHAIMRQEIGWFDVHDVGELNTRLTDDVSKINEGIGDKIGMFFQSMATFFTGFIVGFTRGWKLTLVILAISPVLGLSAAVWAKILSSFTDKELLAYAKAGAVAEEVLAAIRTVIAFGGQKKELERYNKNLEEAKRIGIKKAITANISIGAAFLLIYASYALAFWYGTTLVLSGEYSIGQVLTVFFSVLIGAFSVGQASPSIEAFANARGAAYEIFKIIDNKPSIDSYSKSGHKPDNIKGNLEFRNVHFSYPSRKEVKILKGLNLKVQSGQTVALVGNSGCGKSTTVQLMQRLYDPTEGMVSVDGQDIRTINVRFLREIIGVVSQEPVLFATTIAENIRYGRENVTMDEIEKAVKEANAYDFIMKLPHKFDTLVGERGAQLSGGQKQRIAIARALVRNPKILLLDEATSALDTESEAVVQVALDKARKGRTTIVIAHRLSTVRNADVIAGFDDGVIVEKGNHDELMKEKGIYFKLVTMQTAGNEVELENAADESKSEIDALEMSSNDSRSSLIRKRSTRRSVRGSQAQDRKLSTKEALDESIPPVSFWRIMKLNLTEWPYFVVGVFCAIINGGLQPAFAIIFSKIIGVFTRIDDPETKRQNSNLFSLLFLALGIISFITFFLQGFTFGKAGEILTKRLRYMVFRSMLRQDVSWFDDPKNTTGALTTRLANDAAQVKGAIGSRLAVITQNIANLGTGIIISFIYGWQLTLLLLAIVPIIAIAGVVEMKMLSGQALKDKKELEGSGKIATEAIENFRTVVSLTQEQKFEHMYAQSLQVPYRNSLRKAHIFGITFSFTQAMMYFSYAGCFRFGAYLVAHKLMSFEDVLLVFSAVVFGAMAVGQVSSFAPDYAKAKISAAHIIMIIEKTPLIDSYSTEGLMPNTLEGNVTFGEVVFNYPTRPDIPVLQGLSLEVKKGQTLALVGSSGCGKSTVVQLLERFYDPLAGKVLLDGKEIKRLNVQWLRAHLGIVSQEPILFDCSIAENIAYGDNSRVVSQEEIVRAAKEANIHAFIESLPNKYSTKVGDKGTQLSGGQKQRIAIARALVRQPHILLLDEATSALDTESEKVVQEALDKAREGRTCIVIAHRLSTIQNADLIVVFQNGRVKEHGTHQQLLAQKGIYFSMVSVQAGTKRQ
Nature of the data set: Bidirectional transport of rhodamine123 through Caco-2 monolayers co-incubated with antimalarials (P-gp inhibitory properties). The data set is classed as in vitro ADME. Here is the method:
The Caco-2 cells were seeded on 0.6 cm^2 […] Millipore PCF™ filter inserts at the cell density of 65,000 cells/cm^2 as done previously in the lab. Briefly, the cells were grown for 21–24 days to allow full maturation and formation of tight monolayers. The initial experiments were conducted in mid-40s passage cells and repeated in early 80s passage Caco-2 cells. The Trans epithelial electrical resistance (TEER) was measured immediately before and after the experiment using an epithelial voltage/ohm meter and an ENDOHM 12 chamber (World precision instruments, Sarasota, FL). TEER values were measured both before and after the study with readings above 300 Ω.cm^2 considered as acceptable for tight junctions. […] In order to maintain equivalent transport medium (HBSS/HBSS with inhibitor) level both outside and inside the chambers, 300 μL was used as medium in the apical chambers and 600 μL in the basolateral chambers. […] Drugs were co-incubated with MRCP, BCRP and ATP hydrolysis blockers to determine the involvement of other efflux mechanisms. Prior to the experiment, the transport medium, HBSS or HBSS with P-gp inhibitors were pre-incubated with the cells for 30 minutes. Following incubation, inserts were placed in new well plates and donor chamber is replaced with drug or drug with inhibitor and the receiver chamber with blank HBSS or HBSS with inhibitor. Transport medium was collected from the receiver chamber after stirring at time intervals of 30, 60, 90 and 120 minutes and was replaced with the same volume of fresh HBSS, or HBSS with inhibitor, when P-gp inhibitors were used in the study. At the end of the experiment 100 μL of medium was removed from the donor chamber in addition to medium collected from the receiver chamber during the study. The cells were then washed thoroughly in cold (4°C) PBS and cell membranes attached to the inserts were sonicated for 10 minutes in a sonicating water bath and centrifuged at 10,000 g for 10 minutes. Supernatant was frozen at -80°C until assayed. The Papp values of three well plates were determined using methods modified from Artursson’s group as described by Crowe and Lemaire.
CL.vol=Aa/{[Cd0×Vd−[Aa+(Ca×Vs)]−(Ac)×n/nfin]/Vd}
CL.vol = clearance volume (mL), n = time (min), Aa = amount in acceptor compartment at time n (pmols), Cd0 = concentration in donor compartment at time zero (nM), Vd = volume of the donor compartment (mL), Ca = concentration in acceptor compartment at the previous time point (nM), Vs = sample volume of previous time point (mL), Ac = amount of compound associated with the cells (pmol), Nfin = final time point (min). Papp = Apparent permeability (cm/sec) Rate of clearance (mL/min)=CL.vol / n Papp (cm/sec)=Rate of clearance / Surface area (cm^2)
The cleared volume was plotted against time and the slope of the regression line was divided by the surface area to obtain the Papp values. […] Mean Papp for Bas-Ap direction was divided by the Ap-Bas direction to obtain the efflux ratio and values above two were considered as drugs having true efflux transport.

Data set [1] can be described thus: Bidirectional transport (Papp, efflux ratio) of antimalarials through Caco-2 cell monolayers. The data set is classed as in vitro ADME, human. As to conditions: human; for Papp at 120 min: Caco-2, Caco-2 monolayers. Here is the method:
(§1) The initial experiments were conducted in mid-40s passage cells and repeated in early 80s passage Caco-2 cells. […] In order to maintain equivalent transport medium (HBSS/HBSS with inhibitor) level both outside and inside the chambers, 300 μL was used as medium in the apical chambers and 600 μL in the basolateral chambers. […] Drugs were co-incubated with MRCP, BCRP and ATP hydrolysis blockers to determine the involvement of other efflux mechanisms. Prior to the experiment, the transport medium, HBSS or HBSS with P-gp inhibitors were pre-incubated with the cells for 30 minutes. Following incubation, inserts were placed in new well plates and donor chamber is replaced with drug or drug with inhibitor and the receiver chamber with blank HBSS or HBSS with inhibitor. Transport medium was collected from the receiver chamber after stirring at time intervals of 30, 60, 90 and 120 minutes and was replaced with the same volume of fresh HBSS, or HBSS with inhibitor, when P-gp inhibitors were used in the study. At the end of the experiment 100 μL of medium was removed from the donor chamber in addition to medium collected from the receiver chamber during the study. The cells were then washed thoroughly in cold (4°C) PBS and cell membranes attached to the inserts were sonicated for 10 minutes in a sonicating water bath and centrifuged at 10,000 g for 10 minutes. Supernatant was frozen at -80°C until assayed. […] CL.vol=[…].vol = clearance volume (mL), n = time (min), Aa = amount in acceptor compartment at time n (pmols), Cd0 = concentration in donor compartment at time zero (nM), Vd = volume of the donor compartment (mL), Ca = concentration in acceptor compartment at the previous time point (nM), Vs = sample volume of previous time point (mL), Ac = amount of compound associated with the cells (pmol), Nfin = final time point (min). […] The cleared volume was plotted against time and the slope of the regression line was divided by the surface area to obtain the Papp values. […] The method from Davis and colleagues was adopted with slight modifications. Separations were performed using an Apollo C18 (5 μm, 4.6x150mm) column attached to a matched guard column (5 μm, 4.6x5.5 mm). […] The injection volume was 40 μL and column oven was maintained at 35°C. The analytes were detected at 222 nm and the retention time was 5.6 minutes. Assay developed by Pussard and co-workers were used and slight modifications were done to adjust laboratory conditions. Separation was done using a Prevail C18 (3 μm, 4.6x150mm) column attached to a Direct-connect^TM universal column prefilter. The mobile phase consisted of 20 mM (w/v) KH2PO4 in deionized water at pH 3.0 and acetonitrile (82:18) v/v. […] The injection volume was 40 μL and column oven was maintained at 30°C. The analytes were detected at 343 nm with a retention time of 2.4 minutes. […] Separations were performed using an Apollo C18 (5 μm, 4.6x150mm) column attached to matched guard column (5 μm, 4.6x5.5mm). […] The injection volume was 40 μL and column oven was maintained at 30°C. The analytes were detected at 660 nm with a retention time of 3.8 minutes. A 40 μL sample was spiked with 5 μL 0.5 mM artemisinin internal standard. […] The pipettor was adjusted to the maximum volume (100 μL). […] Pre-treated samples were loaded into the tips by gently aspirating and discarding into the same vial. The process was repeated 10 times in order to increase binding efficiency of drugs to the OMIX 96 C4 matrix. […] The LC-MS method described by […] and co-workers were modified to suit the LC-MS-MS conditions. […] Wexford, Ireland) at 40°C. […] Quantitation was performed in multiple reactions monitoring, MRM mode, using DUIS (ESI^+ and APCI^+) ion sources. […] The optimized mass spectra were acquired with an interface voltage of 4.5 kV, a detector voltage of 1.0 kV, a heat block temperature of 500°C and a desolvation temperature of 160°C.

The next data set has as its system Caco-2 cell monolayers. Described as above. The data set is classed as in vitro ADME, human. Here is the method:
as §1

On the set-up of data set [2]: method as in PMID 17337512. The note with it: monkeys ref 14; cited from earlier work.

On to `C[C@H]1[C@H](N2CCS(=O)(=O)CC2)O[C@@H]2O[C@@]3(C)CC[C@H]4[C@H](C)CC[C@@H]1[C@@]24OO3` [AM, artemisone], for which the P-gp inhibitory properties entry on P-glycoprotein (P-gp) (at 100 μM) and at P-glycoprotein (P-gp) (at test concentrations) was “did not exhibit P-gp inhibitory properties” throughout. Besides, the Papp at 120 min in data set [1] (drug alone, read-out: Ap-Bas directional Papp, range over concentrations tested) was 37 to 60 ×10⁻⁶ cm/s; in data set [1] (drug alone, read-out: Bas-Ap directional Papp, range over concentrations tested), 35 to 47 ×10⁻⁶ cm/s; in data set [1] (read-out: permeability across the gastrointestinal epithelium (class)) it was over 25 ×10⁻⁶ cm/s; in data set [1] (summary in abstract, methylene blue depending on the direction of transport, read-out: permeability), about 50 ×10⁻⁶ cm/s. Moreover, the efflux ratio at 120 min, 10 µM in data set [1] (Caco-2, Conc (μM) + inhibitor (μM): 10, Bas-Ap divided by Ap-Bas) amounted to 0.8. Moreover, the Papp at 120 min, 10 µM in data set [1] (Caco-2, Conc (μM) + inhibitor (μM): 10, first-named drug measured, read-out: Papp Ap-Bas) was 59.6 ± 4.2 ×10⁻⁶ cm/s. For the same compound, in data set [1] (Caco-2, Conc (μM) + inhibitor (μM): 10, first-named drug measured, read-out: Papp Bas-Ap), the Papp B→A at 120 min, 10 µM is 46.9 ± 8.5 ×10⁻⁶ cm/s. The efflux ratio at 120 min, 20 µM in data set [1] (Caco-2, Conc (μM) + inhibitor (μM): 20, Bas-Ap divided by Ap-Bas) is 0.9. For the same compound, the Papp at 120 min, 20 µM in data set [1] (Caco-2, Conc (μM) + inhibitor (μM): 20, first-named drug measured, read-out: Papp Ap-Bas) worked out at 37 ± 4.7 ×10⁻⁶ cm/s. The Papp B→A at 120 min, 20 µM in data set [1] (Caco-2, Conc (μM) + inhibitor (μM): 20, first-named drug measured, read-out: Papp Bas-Ap) is 34.7 ± 2.7 ×10⁻⁶ cm/s. For the same compound, the results for the Net flow direction result in the data set with Caco-2 cell monolayers (Conc (μM) + inhibitor (μM): 10) and in the data set with Caco-2 cell monolayers (Conc (μM) + inhibitor (μM): 20) were “Diffusion (0.25)” and “Diffusion (0.69)”, respectively. The “drug absorption predicted from Papp” value with Caco-2 cell monolayers (based on FDA biopharmaceutical classification system) is given as 100%. In addition, in data set [2], the in-vivo bioavailability result is listed as “higher in-vivo bioavailability compared to artesunate”.
